Data set [1] addresses T1, Leuconostoc mesenteroides sucrose phosphorylase (Spl, L. mesenteroides SP), wild type, gene spl SEQ ID NO:6 (Leuconostoc mesenteroides, UniProt Q59495).
T1 construct: fragment containing the spl gene, encoding the Leuconostoc mesenteroides sucrose phosphorylase enzyme; made in house; host or cells: E. coli BL21 (DE3)
T1 sequence (Q59495 1-490): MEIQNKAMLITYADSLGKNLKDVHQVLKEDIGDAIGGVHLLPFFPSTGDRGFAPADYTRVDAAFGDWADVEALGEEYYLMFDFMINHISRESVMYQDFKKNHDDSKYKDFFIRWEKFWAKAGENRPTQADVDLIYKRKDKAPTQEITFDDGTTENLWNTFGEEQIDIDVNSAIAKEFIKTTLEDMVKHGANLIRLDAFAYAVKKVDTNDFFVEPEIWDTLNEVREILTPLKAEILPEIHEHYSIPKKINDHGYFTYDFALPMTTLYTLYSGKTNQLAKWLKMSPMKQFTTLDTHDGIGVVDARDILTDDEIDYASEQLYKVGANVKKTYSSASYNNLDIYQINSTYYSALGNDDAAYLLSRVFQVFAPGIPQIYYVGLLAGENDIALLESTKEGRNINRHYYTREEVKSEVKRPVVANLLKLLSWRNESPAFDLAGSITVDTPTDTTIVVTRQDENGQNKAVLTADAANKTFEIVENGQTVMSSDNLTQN
In words: Kinetic analysis of sucrose phosphorylase Spl (continuous coupled spectrophotometric assay). The data set is classed as biochemical. The conditions noted are these: 25° C., pH 7.0, read-out: Km(Pi).

For data set [2], the target named is Streptococcus mutans sucrose phosphorylase (GtfA), gene gtfA SEQ ID NO:5 (Streptococcus mutans serotype c, UniProt P10249). The conditions noted are these: 50 mM Pi, 100 mM sucrose, 35° C., pH 7.0. The source says:
(§1) To further characterize the sucrose phosphorylases from S. mutans and L. mesenteroides, plasmid constructs containing the spl or the gtfA genes were made for protoplast transformation. A 1461 bp NcoI/BamHI fragment, containing the gtfA gene was isolated by restriction digestion, gel purified, and ligated to a 4646 bp BamHI/NcoI vector fragment containing the enhanced 35S promoter (e35S; Kay et al., 1987), the HSP70 intron (U.S. Pat. No. 5,593,874), the Nopaline synthase 3′ region (Fraley et al., 1983), and a pUC vector derived backbone. A vector was thus created, containing the expression cassette [p-e35S/HSP70/gtfA/NOS3′]. After ligation, the plasmid constructs were transformed into competent DH5α cells, and the transformed cells were plated out on Ampicillin-containing medium. From the colonies that were formed, positive clones were identified by restriction digest. In a similar experiment a 1491bp NcoI/BamHI fragment, containing the spl gene, was isolated by restriction digestion, gel purified, and ligated to the same 4646bp BamHI/NcoI vector fragment (described above). After ligation, transformation of competent cells, and identification of positive clones, the resulting plasmid constructs were used for corn leaf protoplast transformation. Corn leaf protoplast transformation was performed essentially as described by Sheen J., 1991, with some modifications to the protocol.

The target of data set [3] is Leuconostoc mesenteroides sucrose phosphorylase (Spl), gene spl SEQ ID NO:6 (Leuconostoc mesenteroides, UniProt Q59495). The conditions noted are these: 50 mM Pi, 100 mM sucrose, 35° C., pH 7.0.
Source text: as §1

Data set [4] concerns the target T2, Streptococcus mutans sucrose phosphorylase (GtfA, S. mutans SP), wild type, gene gtfA SEQ ID NO:5 (Streptococcus mutans serotype c, UniProt P10249). Also on record: fragment containing the gtfA gene coding for the Streptococcus mutans sucrose phosphorylase, was cloned into the expression vector pET15b; made in house; host or cells: E. coli BL21 (DE3). Conditions: compared with endogenous maize endosperm enzymes; in words; cited from earlier work.

The target in data set [5] is T2, Streptococcus mutans sucrose phosphorylase (GtfA, S. mutans SP), wild type, gene gtfA SEQ ID NO:5. The conditions noted are these: ratio to L. mesenteroides enzyme.
The subject of data set [6] is sucrose phosphorylase (microbial). The conditions noted are these: general statement, no method given; cited from earlier work.
Data set [7] relates to OC[C@H]1O[C@@](CO)(O[C@H]2O[C@H](CO)[C@@H](O)[C@H](O)[C@H]2O)[C@@H](O)[C@@H]1O. In words: purified protein, by the assay type. Conditions: other: 25° C., pH 7.0, S. mutans SP.
Substrate in data set [8]: OC[C@H]1O[C@@](CO)(O[C@H]2O[C@H](CO)[C@@H](O)[C@H](O)[C@H]2O)[C@@H](O)[C@@H]1O
Put plainly: Kinetic analysis of sucrose phosphorylase Spl (continuous coupled spectrophotometric assay). The conditions noted are these: other: 25° C., pH 7.0, L. mesenteroides SP. The data set is classed as biochemical, Leuconostoc mesenteroides.

T2 sequence (P10249 whole entry, looked up, change not shown, the tested form may be a part): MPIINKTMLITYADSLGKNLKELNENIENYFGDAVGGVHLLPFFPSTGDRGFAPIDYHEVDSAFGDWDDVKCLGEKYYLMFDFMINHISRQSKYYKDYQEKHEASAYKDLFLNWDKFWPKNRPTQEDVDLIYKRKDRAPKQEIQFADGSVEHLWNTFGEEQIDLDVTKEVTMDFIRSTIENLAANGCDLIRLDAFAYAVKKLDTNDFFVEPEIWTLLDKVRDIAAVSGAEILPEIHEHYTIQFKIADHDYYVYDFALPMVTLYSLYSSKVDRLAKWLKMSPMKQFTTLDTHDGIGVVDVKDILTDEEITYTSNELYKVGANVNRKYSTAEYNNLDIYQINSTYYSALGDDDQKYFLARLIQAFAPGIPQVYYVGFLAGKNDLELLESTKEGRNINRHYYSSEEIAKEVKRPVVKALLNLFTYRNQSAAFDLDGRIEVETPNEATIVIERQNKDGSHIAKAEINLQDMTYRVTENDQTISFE
Streptococcus mutans sucrose phosphorylase (GtfA), gene gtfA SEQ ID NO:5, sequence (P10249 whole entry, looked up, change not shown, the tested form may be a part): as above

In the case of `O=P(O)(O)O` [Pi, inorganic phosphate], the Km in data set [1] was determined as 4.88 mM. Also, the “activity (% of optimal activity)” value in data set [2] is given as 100%; in data set [3], “about 80%”.
In the case of `OC[C@H]1O[C@@](CO)(O[C@H]2O[C@H](CO)[C@@H](O)[C@H](O)[C@H]2O)[C@@H](O)[C@@H]1O` [sucrose], the “Km of GftA for sucrose relative to the endogenous enzymes” value in data set [4] is given as “lower Km”. Further, in data set [5], the “Km(sucrose) of the S. mutans enzyme lower than that of the L. mesenteroides enzyme” value is “about 10 times lower” and the “Vmax of S. mutans sucrose phosphorylase lower than that of the enzyme from L. mesenteroides” value is “about 9 times lower”. In addition, the Km in data set [6] is 1 to 25 mM.
With “Streptococcus mutans sucrose phosphorylase (GtfA, S. mutans SP), wild type, gene gtfA SEQ ID NO:5 (Streptococcus mutans UA159)”, in data set [7], the Km worked out at 0.33 mM and the Vmax is listed as 8.5 U/mg.

B1: Leuconostoc mesenteroides sucrose phosphorylase (Spl, L. mesenteroides SP), wild type, gene spl SEQ ID NO:6 (Leuconostoc mesenteroides) (protein)
chain: T1 sequence (Q59495 1-490)
notes: fragment containing the spl gene, encoding the Leuconostoc mesenteroides sucrose phosphorylase enzyme; made in house; host or cells: E. coli BL21 (DE3)
As to B1, in data set [8], the Km was determined as 3.39 mM and the Vmax was found to be 71.3 U/mg.

These data come from patent USRE39114E1, “Expression of sucrose phosphorylase in plants” (Monsanto Technology LLC, priority 1995, dated 2006).
